Results as given in patent publication US10975068B2, “6-aminopyridin-3-yl thiazoles as modulators of RORγT” (Janssen Pharmaceutica NV, priority 2016, dated 2021).
Read-outs that look alike come from different tables or passages of the source.

How the values were obtained:
[1] = target: human RORγt ligand binding domain (RORγt LBD) (Homo sapiens (Human), UniProt P51449); experiment: RORγt ThermoFluor® assay (thermal shift binding); settings: for Kd: read-out: ThermoFluor® Assay, Kd
Method in brief: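 Binding was inferred from thermal stabilisation (ΔTm) of the E. coli-expressed RORγt LBD (0.065 mg/mL), monitored by 1,8-ANS (60 μM) emission at 500 nm during a 1 °C/min ramp. Buffer was Hepes 100 mM pH 7.0 with NaCl, GSH and Tween-20.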

full-length human RORγt = full-length human RORγt (Homo sapiens (Human), UniProt P51449); experiment: RORγt (full-length human) reporter assay, Conditions B or C; format: cell-based; settings: for inhibition at 3 µM: at 3 μM compound concentration, read-out: RORγt (FL) Reporter Assay B or C, % inhibition; for IC50: read-out: RORγt (FL) Reporter Assay B or C, IC50; for RORγt (FL) Reporter Assay B or C, % inhibition (value marked *): marked *: footnote not given
Method in brief: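 Readout is dual luciferase: firefly (GAL4-driven) normalized to DMSO-only and saturating-reference controls, then to CMV-Renilla. Full-length human RORγt fused to GAL4-DBD was transiently expressed in HEK293T; compound exposure ran overnight (16-20 h) starting 4-6 h after transfection, final FBS 1.3%, DMSO 0.1%.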

[2] = compared to Comparator Example 1
[3] = compared to Comparator Example 2

Sequence of full-length human RORγt (P51449 other isoform, or with tags, fused parts or gaps): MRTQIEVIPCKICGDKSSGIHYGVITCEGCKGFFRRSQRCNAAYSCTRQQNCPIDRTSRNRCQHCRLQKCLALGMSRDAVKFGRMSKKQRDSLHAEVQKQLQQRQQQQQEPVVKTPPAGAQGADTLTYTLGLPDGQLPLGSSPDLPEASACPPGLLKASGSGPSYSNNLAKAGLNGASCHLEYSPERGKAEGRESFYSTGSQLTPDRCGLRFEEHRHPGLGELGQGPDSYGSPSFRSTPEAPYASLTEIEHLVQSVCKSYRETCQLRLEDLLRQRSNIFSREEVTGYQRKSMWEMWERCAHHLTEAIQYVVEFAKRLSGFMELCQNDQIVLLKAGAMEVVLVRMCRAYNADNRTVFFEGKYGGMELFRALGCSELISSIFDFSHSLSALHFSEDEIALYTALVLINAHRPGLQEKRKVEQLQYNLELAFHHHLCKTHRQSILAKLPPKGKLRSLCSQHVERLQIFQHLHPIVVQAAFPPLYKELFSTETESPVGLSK
Sequence of human RORγt ligand binding domain (RORγt LBD) (P51449 other isoform, or with tags, fused parts or gaps): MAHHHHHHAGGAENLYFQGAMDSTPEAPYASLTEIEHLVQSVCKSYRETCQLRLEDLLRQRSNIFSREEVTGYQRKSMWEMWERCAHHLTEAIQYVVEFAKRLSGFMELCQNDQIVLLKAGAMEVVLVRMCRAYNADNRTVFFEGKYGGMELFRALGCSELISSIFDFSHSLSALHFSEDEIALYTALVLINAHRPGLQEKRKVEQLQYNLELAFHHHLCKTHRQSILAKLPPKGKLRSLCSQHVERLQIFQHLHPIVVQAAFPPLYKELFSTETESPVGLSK

SMILES | Kd [1] [nM] | inhibition at 3 µM (full-length human RORγt) [%] | IC50 (full-length human RORγt) [nM] | RORγt (FL) Reporter Assay B or C, % inhibition (value marked *) (full-length human RORγt; Conditions B or C) | IC50 (full-length human RORγt; Conditions B or C) [nM] | also measured
C[C@H](Nc1cc(C(F)F)c(-c2sc(C(=O)NC3CN(S(C)(=O)=O)C3)nc2C(=O)N2CCC[C@@H]2C)cn1)C(F)(F)F [Example 409, 5-[4-(Difluoromethyl)-6-[[(1S)-2,2,2-trifluoro-1-methyl-ethyl]amino]-3-pyridyl]-4-[(2S)-2-methylpyrrolidine-1-carbonyl]-N-(1-methylsulfonylazetidin-3-yl)thiazole-2-carboxamide] | 6.3 | 103 | 36 |  |  | 
C[C@H]1CCCCN1C(=O)c1nc(C(=O)NCC(C)(C)O)sc1-c1cnc(NCC(C)(C)C)cc1C(F)F [Example 114, (S)-5-(4-(Difluoromethyl)-6-(neopentylamino)pyridin-3-yl)-N-(2-hydroxy-2-methylpropyl)-4-(2-methylpiperidine-1-carbonyl)thiazole-2-carboxamide] | 0.49 |  |  | 117* % | 9.7 | 
C[C@H]1CCCN1C(=O)c1nc(C(=O)N[C@H]2C[C@H](S(C)(=O)=O)C2)sc1-c1cnc(NC2CCCC2)cc1C(F)F [Example 72, 5-(6-(Cyclopentylamino)-4-(difluoromethyl)pyridin-3-yl)-4-((S)-2-methylpyrrolidine-1-carbonyl)-N-((1r,3r)-3-(methylsulfonyl)cyclobutyl)thiazole-2-carboxamide] | 35 |  |  | 104* % | 89 | 
C[C@H]1CCCN1C(=O)c1nc(C(=O)NCC(C)(C)O)sc1-c1cnc(NC2CCCCC2)c(C#N)c1 [Example 146, (S)-5-(5-Cyano-6-(cyclohexylamino)pyridin-3-yl)-N-(2-hydroxy-2-methylpropyl)-4-(2-methylpyrrolidine-1-carbonyl)thiazole-2-carboxamide] | 210 |  |  | 98* % | 830 | fold improvement in RORγt Thermofluor® binding assay activity [1, 2]: 14 fold; fold improvement in RORγt Thermofluor® binding assay activity [1, 3]: 27 fold; IC50 (full-length human RORγt; HEK293T cells): 830 nM; fold improvement in RORγt reporter assay activity (full-length human RORγt; [2]): 7.2 fold; fold improvement in RORγt reporter assay activity (full-length human RORγt; [3]): 3.6 fold
C[C@H]1CC(F)(F)CN1C(=O)c1nc(C(=O)NCC(C)(C)O)sc1-c1cnc(NC2(C(F)(F)F)CCC2)cc1C(F)(F)F [Example 100, (S)-4-(4,4-Difluoro-2-methylpyrrolidine-1-carbonyl)-N-(2-hydroxy-2-methylpropyl)-5-(4-(trifluoromethyl)-6-((1-(trifluoromethyl)cyclobutyl)amino)pyridin-3-yl)thiazole-2-carboxamide] | 0.39 |  |  | 108* % | 14 | 
CC(C)(C)Nc1cc(C(F)F)c(-c2sc(C(=O)NC3CCS(=O)(=O)CC3)nc2C(=O)N2C3CCC2CC3)cn1 [Example 433, 4-((1s,4s)-7-Azabicyclo[2.2.1]heptane-7-carbonyl)-5-[6-(tert-butylamino)-4-(difluoromethyl)-3-pyridyl]-N-(1,1-dioxothian-4-yl)thiazole-2-carboxamide] | 1.2 | 128 | 25 |  |  | 
C[C@H]1CC(F)(F)CN1C(=O)c1nc(C(=O)NCC(C)(C)O)sc1-c1cnc(NCC2(C(F)(F)F)CCC2)cc1C(F)(F)F [Example 118, (S)-4-(4,4-Difluoro-2-methylpyrrolidine-1-carbonyl)-N-(2-hydroxy-2-methylpropyl)-5-(4-(trifluoromethyl)-6-(((1-(trifluoromethyl)cyclobutyl)methyl)amino)pyridin-3-yl)thiazole-2-carboxamide] | 0.43 |  |  |  | 7.1 | RORγt (FL) Reporter Assay B or C, % inhibition (value marked ****) (full-length human RORγt; Conditions B or C, marked ****: footnote not shown): 109**** %
C[C@H](CO)NC(=O)c1nc(C(=O)N2CCC[C@@H]2C)c(-c2cnc(NC(C)(C)C)cc2C(F)F)s1 [Example 148, 5-(6-(tert-Butylamino)-4-(difluoromethyl)-3-pyridyl)-N-((1R)-2-hydroxy-1-methyl-ethyl)-4-((2S)-2-methylpyrrolidine-1-carbonyl)thiazole-2-carboxamide] | 6.4 |  |  | 95* % | 25 | 
C[C@H](NC(=O)c1nc(C(=O)N2CCC[C@@H]2C)c(-c2cnc(N[C@H](C)C(F)(F)F)cc2C(F)F)s1)C(C)(C)O [Example 304, 5-(4-(Difluoromethyl)-6-(((R)-1,1,1-trifluoropropan-2-yl)amino)pyridin-3-yl)-N—((S)-3-hydroxy-3-methylbutan-2-yl)-4-((S)-2-methylpyrrolidine-1-carbonyl)thiazole-2-carboxamide] | 5.1 | 102 | 92 |  |  | 
CC[C@H](Nc1cc(C(F)F)c(-c2sc(C(=O)N[C@@H]3COC[C@@H]3O)nc2C(=O)N2CCC[C@@H]2C)cn1)C(F)(F)F (single isomer, unassigned) [Example 162, 5-(4-(Difluoromethyl)-6-(((S)-1,1,1-trifluorobutan-2-yl)amino)pyridin-3-yl)-N-((3R*,4R*)-4-hydroxytetrahydrofuran-3-yl)-4-((S)-2-methylpyrrolidine-1-carbonyl)thiazole-2-carboxamide] | 9.5 |  |  | 104* % | 31 | 

Second part, led by results:

Kd [1] [nM] | inhibition at 3 µM (full-length human RORγt) [%] | IC50 (full-length human RORγt) [nM] | RORγt (FL) Reporter Assay B or C, % inhibition (value marked *) (full-length human RORγt; Conditions B or C) | IC50 (full-length human RORγt; Conditions B or C) [nM] | SMILES | also measured
0.38 | 124 | 3.8 |  |  | C[C@H]1CCCN1C(=O)c1nc(C(=O)NC2CCCC2O)sc1-c1cnc(NC(C)(C)C)cc1C(F)(F)F (stereo partly drawn) [Example 347, 5-[6-(tert-Butylamino)-4-(trifluoromethyl)-3-pyridyl]-N-[cis-2-hydroxycyclopentyl]-4-[(2S)-2-methylpyrrolidine-1-carbonyl]thiazole-2-carboxamide] | 
1.4 | 109 | 19 |  |  | CC[C@@H](Nc1cc(C(F)(F)F)c(-c2sc(C(=O)NCC(C)(C)O)nc2C(=O)N2CCC[C@@H]2C)cn1)C(F)(F)F [Example 282, N-(2-Hydroxy-2-methyl-propyl)-4-[(2S)-2-methylpyrrolidine-1-carbonyl]-5-[4-(trifluoromethyl)-6-[[(1R)-1-(trifluoromethyl)propyl]amino]-3-pyridyl]thiazole-2-carboxamide] | 
16 | 95 | 13 |  |  | CCNC(=O)c1nc(C(=O)N2CCC[C@@H]2C)c(-c2cnc(NC(C)(C)C)cc2C(F)(F)F)s1 [Example 309, (S)-5-(6-(tert-Butylamino)-4-(trifluoromethyl)pyridin-3-yl)-N-ethyl-4-(2-methylpyrrolidine-1-carbonyl)thiazole-2-carboxamide] | 
1.7 |  |  | 103* % | 26 | C[C@H]1CCCN1C(=O)c1nc(C(=O)NCC(C)(C)O)sc1-c1cnc(NCC(C)(C)C(F)(F)F)cc1C(F)(F)F [Example 120, (S)—N-(2-Hydroxy-2-methylpropyl)-4-(2-methylpyrrolidine-1-carbonyl)-5-(6-((3,3,3-trifluoro-2,2-dimethylpropyl)amino)-4-(trifluoromethyl)pyridin-3-yl)thiazole-2-carboxamide] | 
4.2 | 106 | 35 |  |  | C[C@H](Nc1cc(C(F)F)c(-c2sc(C(=O)N[C@@H]3CC[C@@H]3O)nc2C(=O)N2CCC[C@@H]2C)cn1)C(F)(F)F (relative stereo) [Example 391, 5-(4-(Difluoromethyl)-6-(((S)-1,1,1-trifluoropropan-2-yl)amino)pyridin-3-yl)-N-((1R*,2S*)-2-hydroxycyclobutyl)-4-((S)-2-methylpyrrolidine-1-carbonyl)thiazole-2-carboxamide] | 
